Results on 90 compounds are retold here after a melting point compilation (Tetko et al.; mined from patent text by program, amines drawn as free bases though some values may be those of a salt).

Some results are limits rather than exact numbers.

Regarding `CS(=O)(=O)c1ccc(-c2cn(-c3ccccc3)nc2C(=O)O)cc1`, the melting point lay in the range of 207 to 208 °C. To `COC(=O)c1cc2cccc(OC)c2cc1O` belongs 182 °C; to `O=C1Nc2ccccc2Oc2ncccc21`, 250 to 253 °C. For `O=c1[nH]c2cscc2c(=O)n1CCN1CCN(c2cccc(Cl)c2)CC1` the value was 207 to 208 °C; for `CCOC(=O)c1ccc(N=C(Nc2ccc(C(=O)OCC)cc2)c2ccccc2OC)cc1`, 163 to 164 °C; for `Nc1nc(N)c2cc(Sc3ccc(Cl)c(Cl)c3)ccc2n1`, 232 to 234 °C. To `O=c1nc(-c2ccccc2)c2cc([N+](=O)[O-])ccc2n1CC1CCCO1` (stereo not given) belongs 150 to 152 °C. The compound `O=C([C@@H]1CCCN1S(=O)(=O)c1ccc2ccccc2c1)N1C[C@@H](c2ccc(Cl)cc2)Sc2ccccc21` displayed a melting point of 147 to 151 °C. `C=CC(=O)N1CCSc2ccccc2C1` gave a melting point of 108 to 110 °C. As for `CCC1(CC(=O)O)OCC(=O)c2c1[nH]c1cccc(Cl)c21` (stereo not given), the melting point fell in the range of 240 to 243 °C. `CC1(C)CCCC(C)(C)N1c1nc(Cl)cc(Cl)n1` displayed a melting point of 89 to 90 °C. To `O=C1ON(c2ccccc2Cl)C(c2ccccc2)C1c1ccccc1` (stereo not given) belongs 178 to 180 °C; to `O=c1[nH]c(C(F)(F)F)c(Br)c(=O)[nH]1`, 236 to 240 °C; to `CCn1c(=O)c2c(-c3nc(C)no3)ncn2c2cccnc21`, 251 to 252 °C. For `CCC(C(CC(=O)OC)c1ccc(Cl)cc1Cl)[N+](=O)[O-]` (stereo not given) the value was 234 to 237 °C; for `CC(=O)CC(=O)C=Cc1cc(O)ccc1Br`, 185 to 188 °C; for `CCCCc1oc2ccccc2c1C(=O)c1cc(Br)c(OCC(=O)O)c(Br)c1`, 92 to 94 °C. The compound `CC1=N/C(=C\c2c[nH]c3ncccc23)C(=O)N1C(C)C` showed a melting point of 207 °C.

`Cc1nc(NC(=O)c2ccn(-c3ccccc3)c(=O)c2)sc1C(=O)NCc1ccccc1` showed a melting point of 260 to 262 °C. `COc1ccc(CNc2nnc(-n3ccnc3)c3ccc(Cl)cc23)cc1Cl` yielded a melting point of 221 to 222 °C. To `O=C(C=Cc1ccccc1Cl)Nc1cc(Cl)cc(Nc2noc3ccccc23)c1` belongs 133 to 135 °C; to `Cc1[nH]c(Cl)c(C)c1-c1ccnc(Nc2ccc(F)cc2)n1`, 200 to 203 °C; to `CCOC(=O)c1ccc(NC(=O)Cn2ccnc2)cc1`, 185 to 187 °C. For `CS(=O)(=O)c1ccc(C2=C(Br)CCC2)cc1` the value was 103 to 104 °C; for `CC(=O)NCC1CN(c2ccc(N3CCN(c4ncc([N+](=O)[O-])s4)CC3)c(F)c2)C(=O)O1` (stereo not given), 202 to 203 °C; for `CCOc1ccc(-c2ccc3c(c2)C=C(C(=O)O)CCN3S(C)(=O)=O)cc1F`, 237 to 239 °C.

In turn, `Cn1nc(-n2ncc(C(N)=S)c2N)c(Cl)c1OC(F)F` came in with a melting point of 156 °C. To `CC(C)S(=O)(=O)n1c(N)nc2ccc(C(=O)c3ccccc3)cc21` belongs 191 to 193 °C; to `CC(=O)ON=Cc1cccc2c1C=Cc1ccccc1S2`, 144 to 145 °C; to `COc1ccc2c(c1)CC(CNC(=O)Nc1c(C(C)C)cccc1C(C)C)CC2` (stereo not given), 171 to 172 °C. Take `Cc1ccc(C(=O)Nc2nc(-c3ccccc3)c(-c3nc4ccccc4c(=O)n3-c3ccccc3Cl)s2)cc1`: the melting point is more than 275 °C.

Compound `O=C(O)CCc1cc2nc(Cl)ccc2n1S(=O)(=O)c1cccc(OC(F)(F)F)c1` registered a melting point of 146 °C. To `OCCOCn1c(Cl)nc2c(Cl)c(Cl)c(Cl)c(Cl)c21` belongs 168 to 170 °C. To `COc1ccc2c(c1OC)CCC(NC(=O)CCCCC(=O)NCCc1ccccc1)C2` (stereo not given) belongs 191 to 193 °C; to `CCC(=O)c1cc(-c2ccc(OC)cc2)no1`, 135 to 136 °C; to `CNC(=O)On1cc(Cl)cn1`, 125 °C. On to `O=C1c2ccccc2C(=O)N1OC/C=C/C=C/c1ccc(F)cc1`, for which the melting point was in the range of 155 to 157 °C. The compound `COC(=O)NC(CCc1ccccc1)C(=O)OCC(Cl)(Cl)Cl` (stereo not given) displayed a melting point of 31 to 35 °C.

`C=CCOC1CC(C)(C)N(c2nc(Cl)nc(Cl)n2)C(C)(C)C1` displayed a melting point of 53 to 55 °C. `Clc1ccc2c(c1)c(-c1ccccc1)c1n2CCNC1` gave a melting point of 163 to 164 °C. `CCCCC[C@@H](CNC(=O)Nc1c(OCC)ccc2c1CCC2)c1cccc2c1OCO2` came in with a melting point of 108 to 109 °C. In the case of `CC(C(=O)O)(c1ccc(OCc2ccc3ccccc3n2)cc1)c1ccc(OCc2ccc3ccccc3n2)cc1`, the melting point lay in the range of 208 to 210 °C. With `O=C(c1cccs1)c1cnn2c(-c3cccc(-c4nnn(CC5CCC5)n4)c3)ccnc12`, the melting point was found to be 170 °C. Compound `COC(=O)C1Cc2c([nH]c3ccccc23)C(c2ccc3c(c2)OCO3)N1C(=O)CCl` (stereo not given) displayed a melting point of 207 to 208 °C.

`CCOC(=O)c1cnc2n(c1=O)CCc1cc(OC)ccc1-2` registered a melting point of 158 to 160 °C. The compound `Cc1cccc(NC(=O)Nc2cccc3c2C2CC(=O)CCN2C3=O)n1` (stereo not given) registered a melting point of 226 to 228 °C. `O=C(OCC(Cl)(Cl)Cl)N1CCC(=C2c3ccccc3Oc3ccccc32)CC1` showed a melting point of 132 to 134 °C.

On to `CC1C(=O)Nc2c(C(=O)c3ccccc3)cccc21` (stereo not given), for which the melting point lay within 125 to 127 °C. Compound `COc1cc(NCCCCCCO)c2nccc(C)c2c1` gave a melting point of 97 to 99 °C.

On to `CC(=O)N1OCC(=S)NC1c1ccccc1` (stereo not given), for which the melting point is 172 to 174 °C. To `COc1cnn([C@@H]2C[C@H](O)[C@@H](O)[C@H]2O)c(=O)c1Cl` (racemic) belongs 166 to 168 °C. The compound `CC(C)C(C(=O)O)N(CCN1CCOCC1)S(=O)(=O)c1ccc(-c2ccc(NC(=O)c3cc4ccccc4o3)cc2)cc1` (stereo not given) showed a melting point of 181 to 185 °C. For `COc1cc(N)c(Cl)cc1C(=O)NCC1CCN(CCCCCCC(=O)c2ccccc2)CC1`, the melting point lay in the range of 128 to 130 °C.

Turning to `CCCOc1ccc(C(CC(=O)O)N2C(=O)c3ccccc3C2=O)cc1` (stereo not given), the melting point is 142 to 144 °C. To `COC(=O)C(=O)Nc1ccc(-c2ccccc2S(=O)(=O)NC(C)(C)C)cc1` belongs 132 °C; to `COc1ccc2nc(-c3ccccc3)cc(C(=O)Nc3ccc(CCCCN(C)Cc4ccc(OC)c(OC)c4)cc3)c2c1`, 148 °C. `COc1cc(N)cc([N+](=O)[O-])c1OC` yielded a melting point of 129 to 131 °C. To `CN1C(=O)n2c(nc3ccccc32)NC12CCCC2` belongs 180 to 182 °C; to `C[C@H](CSC(=O)c1ccccc1)C(=O)O`, 63 to 65 °C. For `Cc1sc(N2CCCCC2)nc1C=Cc1cn(-c2ccccc2)nc1O` the value was 224 to 226 °C; for `CNC(=O)C(Cc1ccc(OC)cc1)NC(=O)Nc1n[nH]c(=S)s1` (stereo not given), 232 to 233 °C; for `CC(=O)c1ccc(C(=O)OC(C)(C)C)cc1`, 57.5 to 58.8 °C. For `Clc1ccc2oc(CBr)cc2c1` the value was 70 °C. For the compound `Cc1c(C(=O)OC(C)(C)C)oc2cccc(O)c12`, the melting point was in the range of 158 to 159 °C.

On to `Cc1nc(N)nc(N)c1N=Nc1ccc(I)cc1`, for which the melting point is 243 to 244 °C. For `Cn1nc(-c2ccncc2)c2ccccc2c1=O` the value was 173 to 174 °C; for `C[C@H]([C@](O)(Cn1cncn1)c1ccc(F)cc1F)S(=O)(=O)N1CCOCC1`, 157 to 158 °C; for `O=Cc1cc2ccccc2nc1I`, 150 to 152 °C.

As to `CCOC(=O)c1nc2c(=O)[nH]c3cc(C(F)(F)F)ccc3n2c1CNCc1ccccc1`, the melting point was more than 250 °C. For `Fc1ccc2[nH]cc(C3=CCN(CC4CCc5ccccc5O4)CC3)c2c1` (stereo not given) the value was 172 to 175 °C; for `COCCN(C1CC(C)(C)Oc2ccc(OCc3ccccc3)cc21)S(C)(=O)=O` (stereo not given), 66 to 68 °C; for `O=c1c(CCO)c(O)c2cccnc2n1-c1cccc([N+](=O)[O-])c1`, 244 to 245 °C. `CC(C)(C)C(NC(=O)c1cccc2c1-c1ccccc1C2=O)Nc1c(Nc2cccnc2)c(=O)c1=O` (stereo not given) displayed a melting point of 201 to 202 °C. For `CS(=O)(=O)N1CCC(NC(=O)Nc2cccc(F)c2)CC1` the value was 212 to 214 °C. Consider `CCCCCCCN(CCN1CCN(CCSc2nc3c(C)c(Cl)cc(C(C)C)c3o2)CC1)C(=O)Nc1c(C(C)C)cc(O)cc1C(C)C`, for which the melting point was 138 to 140 °C. The compound `CCCCOc1ccc(/C=C/c2nc3c([nH]2)c(=O)n(CC)c(=O)n3CC)cc1` gave a melting point of 258 to 261 °C. `CP(C)(=O)CNc1cc(Oc2ccc(C(F)(F)F)cn2)ccc1[N+](=O)[O-]`: the melting point lay in the range of 158 to 160 °C. For `CCCCCCCCCCCCCCCCCCN(C(=O)CCCCCCCCCCC)C1O[C@H](CO)[C@@H](O)[C@H](O)[C@H]1NC(=O)CCCCCCCCCCC` (stereo not given in full) the value was 86 °C; for `CCOc1cc(N(CC)CC)ccc1C1(N(c2ccccc2)c2ccc(NC(C)=O)cc2)OC(=O)c2ccccc21` (stereo not given), 126 to 131 °C; for `CSc1nc(N)c(C(N)=S)s1`, 192 to 195 °C.

Compound `COc1ccc(-c2[nH]nc3c2C(=O)c2c(NC(=O)Cc4ccc5c(c4)OCCO5)cccc2-3)cc1` came in with a melting point of 297 °C. For the compound `O=C(c1ccccc1CBr)c1cc(F)ccc1CBr`, the melting point fell in the range of 118 to 119 °C.

Regarding `Cc1cccc(C)c1NC(=O)CN1CCN2C(C1)C(=O)N(C(C)C)C2(C)C` (stereo not given), the melting point was determined as 155 °C.

As to `CCOC(=O)c1ncn2c1CN(C)C(=O)c1c(C)cccc1-2`, the melting point fell in the range of 146 to 147 °C.

On to `CCNC(=O)c1ccc(Cc2ccccc2)cn1`, for which the melting point is 77 to 78 °C. To `CC1C(=O)N(CC(N)=O)c2cc(Br)ccc21` (stereo not given) belongs 102 to 104 °C; to `Cc1nc2cc(C(=O)O)c(C(=O)O)cc2n1C`, 308 to 312 °C; to `NS(=O)(=O)c1ccsc1C1=NOCCO1`, 180 °C. To `O=C(NCCCCn1cncn1)c1ccco1` belongs 78 to 79 °C; to `O=C(CNC(=O)c1ccc([N+](=O)[O-])cc1F)OCc1ccccc1`, 104 to 106 °C.
